Data from US12685320B2, “Food processing oxidation treatment forumlations and methods” (Clean Chemistry, Inc., priority 2023, dated 2026).

What was measured:
[1] = Poultry chiller tank: residual decay and odor of antimicrobial baths; type: physicochemical
Experimental: A standardized test was conducted to compare the antimicrobial efficacy, residual decay, and effect on solution pH of peracetate and peracetic acid in reducing Salmonella spp. on poultry as a processing method directed to control microbial growth or inactivate microorganisms in food products during processing to lower risk of foodborne pathogens or spoilage microorganisms. The objective of this study was to determine the efficacy of peracetate and peracetic acid treatments for reducing Salmonella spp. on poultry thighs in a treatment bath under conditions simulating pre-chiller and red water main chiller applications. To mimic these applications in a poultry processing facility, target concentrations were determined to be 150 ppm of either peracetate (as PAA equivalents) or peracetic acid in the simulated pre-chiller application and 75 ppm of either peracetate (as PAA equivalents) or peracetic acid in the simulated red water main chiller application. […]
(§1) The pH, temperature, and residual antimicrobial concentration (measured as either peracetate or peracetic acid) were monitored through the duration of both applications. […]
During the pre-chiller and main chiller treatments, the temperature, pH, and antimicrobial concentrations were monitored and recorded every 10 minutes. […] After incubating, colonies were counted, and log transformed.

Salmonella spp. = assay: Poultry chiller tank (pre-chiller and red water main chiller): Salmonella on inoculated poultry thighs; type: cell-based, S. Infantis, S. Typhimurium, S. Enteritidis; settings: for Recovered average Log10 CFU/g: pH>8.5
Experimental: A standardized test was conducted to compare the antimicrobial efficacy, residual decay, and effect on solution pH of peracetate and peracetic acid in reducing Salmonella spp. on poultry as a processing method directed to control microbial growth or inactivate microorganisms in food products during processing to lower risk of foodborne pathogens or spoilage microorganisms. The objective of this study was to determine the efficacy of peracetate and peracetic acid treatments for reducing Salmonella spp. on poultry thighs in a treatment bath under conditions simulating pre-chiller and red water main chiller applications. To mimic these applications in a poultry processing facility, target concentrations were determined to be 150 ppm of either peracetate (as PAA equivalents) or peracetic acid in the simulated pre-chiller application and 75 ppm of either peracetate (as PAA equivalents) or peracetic acid in the simulated red water main chiller application. Both applications targeted a pH>8.5 to simulate the intentional alkalinity of chillers in poultry processing facilities.
as §1
The inoculum used in this study was prepared from three reference strains of Salmonella: S. Infantis (Reference Strain ID: ATCC 51741), S. Typhimurium (Reference Strain ID: ATCC 13311), and S. Enteritidis (Reference Strain ID: ATCC 13076). […] Colonies from each strain were placed into individual tubes of buffered peptone water (BPW) determined using a spectrophotometer (ThermoFisher Scientific, 1700/0512). […] Post incubation, colonies were counted, and log transformed reported. […]
Prior to inoculation, the average weight of the poultry thighs used in this study was determined to be 150 grams. […]

CC(=O)OO [peracetic acid]
additional antimicrobial required to maintain minimum concentration ([1]; pre-chiller application): 13.0 mL | additional antimicrobial required to maintain minimum concentration ([1]; red water main chiller application): 26.0 mL | Recovered average Log10 CFU/g (Salmonella spp.; main chiller treatment (after pre-chiller), target 75 ppm, untreated main chiller control 4.13): 3.45 Log10 CFU/g | difference in antimicrobial effectiveness of peracetic acid and peracetate (Salmonella spp.; pre-chiller and main chiller): No significant difference | Recovered average Log10 CFU/g (Salmonella spp.; pre-chiller treatment, target 150 ppm, untreated 5.46, untreated pre-chiller control 4.76): 3.65 Log10 CFU/g
